Measured values taken from ChEMBL document CHEMBL2390860, “Chemical constituents from Nelumbo nucifera leaves and their anti-obesity effects” (Bioorg Med Chem Lett, 2013).
Activity calls are given as the source filed them. The calls are words filed in the database; no cut-off is given here.

What was measured:
[1] = system: 3T3-L1; assay: Antiobesity activity in mouse 3T3L1 cells assessed as reduction of fat accumulation at 100 uM by oil Red O staining-based ELISA; format: functional, cell-based
[2] = target: T1, Pancreatic triacylglycerol lipase (Sus scrofa) (UniProt P00591); assay: Inhibition of porcine pancreatic lipase using para-nitrophenyl butyrate as substrate at 100 uM by ELISA
T1 sequence (whole entry): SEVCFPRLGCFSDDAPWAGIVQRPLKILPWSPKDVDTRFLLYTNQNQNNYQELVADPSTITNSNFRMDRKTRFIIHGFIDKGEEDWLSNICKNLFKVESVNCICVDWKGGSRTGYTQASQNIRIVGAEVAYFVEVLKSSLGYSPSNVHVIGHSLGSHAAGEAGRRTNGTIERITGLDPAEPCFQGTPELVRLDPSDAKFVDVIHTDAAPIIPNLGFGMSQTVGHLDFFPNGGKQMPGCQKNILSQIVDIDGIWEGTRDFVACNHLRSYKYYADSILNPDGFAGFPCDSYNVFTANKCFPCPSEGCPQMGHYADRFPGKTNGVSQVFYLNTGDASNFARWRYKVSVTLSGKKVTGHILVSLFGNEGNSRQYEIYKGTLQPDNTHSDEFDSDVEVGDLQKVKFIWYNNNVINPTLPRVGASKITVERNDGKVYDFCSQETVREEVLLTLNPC

Row | Structure (SMILES) | Activity [1] | Lipase inhibition (active/not active) [2]
1 | CC(=O)/C=C/[C@@]12O[C@]1(C)C[C@@H](O)CC2(C)C | Active | inactive
2 | O=c1c(O)c(-c2ccc(O)c(O)c2)oc2cc(O)cc(O)c12 | Active | Active
3 | COc1cc2c3c(c1OC)C1(C=CC(=O)C=C1)C[C@H]3N(C)CC2 |  | Active
4 | O=C(/C=C/c1ccc(O)cc1)NCCc1ccc(O)cc1 | inactive | Active
5 | COc1cc(-c2oc3cc(O[C@@H]4O[C@H](CO)[C@@H](O)[C@H](O)[C@H]4O)cc(O)c3c(=O)c2O)ccc1O | Active | inactive
6 | O=c1c(O)c(-c2ccc(O)cc2)oc2cc(O)cc(O)c12 | Active | Active
7 | COc1cc(/C=C/C(=O)NCCc2ccc(O)cc2)ccc1O | inactive | Active
8 | CC(=O)/C=C/[C@H]1C(C)=C[C@H](O[C@@H]2O[C@H](CO)[C@@H](O)[C@H](O)[C@H]2O)CC1(C)C | inactive | inactive
9 | O=C1c2ccccc2-c2c3c(cc4ccnc1c24)OCO3 | Active | Active
10 | CC1(C)C[C@@H](O)C[C@@]2(C)OC(=O)C=C12 | inactive | inactive
11 | CC(=O)/C=C\[C@@H]1[C@@H](C)C[C@@H](O[C@@H]2O[C@H](CO)[C@@H](O)[C@H](O)[C@H]2O)CC1(C)C | inactive | inactive
12 | C[N+]1([O-])CCc2cc3c(c4c2[C@H]1Cc1ccccc1-4)OCO3 (some centres undefined) | Active | Active
13 | O=c1c(O[C@@H]2O[C@H](CO)[C@@H](O)[C@H](O)[C@H]2O)c(-c2ccc(O)cc2)oc2cc(O)cc(O)c12 | Active | inactive
14 | CC(=O)/C=C/[C@H]1[C@H](C)C[C@H](O)CC1(C)C | inactive | inactive
15 | Oc1cc(O)c2c(c1)O[C@@H](c1ccc(O)c(O)c1)[C@H](O)C2 |  | Active
16 | Oc1ccc([C@H]2Oc3c(O)c(O)c(O)c(O)c3C[C@@H]2O)cc1O |  | Active

Row | Structure (SMILES) | Activity [1] | Lipase inhibition (active/not active) [2]
17 | CC1=CC(=O)CC(C)(C)/C1=C/C[C@H](C)O | inactive | inactive
18 | CC(=O)C=C=C1C(C)(C)C[C@H](O)C[C@@]1(C)O | inactive | inactive
19 | CC(=O)/C=C/[C@@]1(O)C(C)=CC(=O)CC1(C)C | inactive | inactive
20 | O=C1CC[C@@H]2c3cc(O)c(O)cc3CCN12 |  | Active
21 | CC1=CC(=O)CC(C)(C)[C@@]1(O)/C=C/[C@@H](C)O | inactive | inactive
22 | CC(=O)/C=C/[C@]1(O)[C@@H](C)C[C@@H](O)CC1(C)C | inactive | inactive
23 | CC1=C2C[C@@H](C(C)(C)O[C@@H]3O[C@H](CO)[C@@H](O)[C@H](O)[C@H]3O)CC[C@@]2(C)CCC1=O | inactive | inactive
24 | O=c1c(O[C@@H]2O[C@H](CO)[C@@H](O)[C@H](O)[C@H]2O)c(-c2ccc(O)c(O)c2)oc2cc(O)cc(O)c12 | Active | inactive
25 | O=C(/C=C\c1ccc(O)cc1)NCCc1ccc(O)cc1 | inactive | Active
26 | O=C1c2c(O)cc(O)cc2O[C@H](c2ccc(O)c(O)c2)[C@H]1O |  | Active
27 | O=c1cc(-c2ccc(O)c(O)c2)oc2cc(O)cc(O)c12 | Active | Active
28 | CC(=O)C=C=C1C(C)(C)C[C@H](O)C[C@]1(C)O | inactive | inactive
29 | COc1cc(/C=C\C(=O)NCCc2ccc(O)cc2)ccc1O | inactive | Active
30 | CC(=O)/C=C/[C@@]12O[C@]1(C)C[C@@H](O[C@@H]1O[C@H](CO)[C@@H](O)[C@H](O)[C@H]1O)CC2(C)C | inactive | inactive
31 | CC(=O)/C=C/[C@]12O[C@@]1(C)C[C@@H](O)CC2(C)C | Active | inactive
32 | O=C1c2c(O)cc(O)cc2O[C@@H](c2ccc(O)c(O)c2)[C@H]1O | Active | Active
